Measured values taken from patent US10654794B2, “Fused tricyclic Γ-amino acid derivative, preparation method therefor, and medical use thereof” (SICHUAN HAISO PHARMACEUTICAL CO., LTD., priority 2016, dated 2020).
Read-outs that look alike come from different tables or passages of the source.

Tests used:
[1] = Pharmacokinetic evaluation in rats; format: in vivo, Male SD rats; settings: rat; for AUC(0-inf) / half-life / bioavailability / Cmax: male, SD, plasma; for AUC(0-inf): read-out: Area under curve AUC0-inf; for half-life: read-out: Half-life t½ (converted); for bioavailability / Bioavailability F: Oral 10 mg/kg vs I.V. 5 mg/kg; for bioavailability: read-out: Bioavailability F; for Cmax: read-out: Blood Drug Level Cmax
Method: Pharmacokinetic Evaluation
Male SD rats (purchased from Vital River Laboratory Animal Technology Co., Ltd.), each weighing 180 to 240 g, were fasted overnight but allowed access to water. Three rats were administered by oral gavage at a dose of 10 mg/kg, and three rats were intravenously injected at 5 mg/kg. For the oral administration group, the compounds were formulated into 1.0 mg/mL suspensions with a 0.5% methylcellulose (MC) solution, and 200 μl blood was sampled before administration and 30 min, 1 h, 2 h, 4 h, 6 h, 8 h, 12 h and 24 h after administration. For the intravenous injection (I.V.) group, the compounds were formulated into 1.0 mg/ml solutions with physiological saline, and blood was sampled before administration and 5 min, 15 min, 30 min, 1 h, 2 h, 4 h, 8 h, 12 h and 24 h after administration. The blood samples were all anticoagulated with heparin, and centrifuged at 5500 rpm for 10 min to collect plasma, which was stored at −20° C. 10 μl plasma of rats for each of the time points was mixed with a 500 μl acetonitrile solution containing an internal standard, vortexed for 10 min, and centrifuged at 3700 rpm for 18 min. 50 μl of the supernatant was mixed with 100 μl water and vortexed for 10 min. 5 μl of the mixture was subjected to an LC-MS/MS analysis to determine the blood drug level of the parent drugs. The main pharmacokinetic parameters were analyzed using the software WinNonlin 6.3 at the non-compartment mode.

[2] = test system: pain in diabetic peripheral neuropathy; settings: patients with diabetic peripheral neuropathy; cited from earlier work

Row | Compound | AUC(0-inf) ([1]; iv, 5 mg/kg, I.V., 5 mg/kg) | half-life ([1]; iv, 5 mg/kg, I.V., 5 mg/kg) | bioavailability ([1]; po, 10 mg/kg) | AUC(0-inf) ([1]; po, 10 mg/kg, Oral, 10 mg/kg) | Cmax ([1]; po, 10 mg/kg, Oral, 10 mg/kg) | half-life ([1]; po, 10 mg/kg, Oral, 10 mg/kg) | Area under curve AUC0-inf ([1]; I.V., 5 mg/kg) | Half-life t½ ([1]; I.V., 5 mg/kg) | Bioavailability F [1] | Area under curve AUC0-inf ([1]; Oral, 10 mg/kg) | Blood Drug Level Cmax ([1]; Oral, 10 mg/kg) | Half-life t½ ([1]; Oral, 10 mg/kg) | proportion of patients whose pain is relieved to a great extent [2]
1 | NC[C@@]1(CC(=O)O)[C@@H]2C[C@@H]3CC[C@H]1[C@H]2C3 (racemic) [Example 1, (±)-2-((1R,2R,3S,6R,8R)-2-(aminomethyl)tricyclo[4.2.1.0^3,8]nonan-2-yl)acetic acid] | 6800 ng·h/mL | 1.3 h | 95% | 12900 ng·h/mL | 3000 ng/mL | 2.3 h | – | – | – | – | – | – | –
2 | NC[C@@]1(CC(=O)O)[C@@H]2C[C@@H]3CC[C@H]1[C@H]2C3 (racemic) [Example 2, (±)-2-((1R,2R,3S,6R,8R)-2-(aminomethyl)tricyclo[4.2.1.0^3,8]nonan-2-yl)acetic acid benzenesulfonic acid (1:1)] | – | – | – | – | – | – | 8147 ng·h/mL | 1.40 h | 83.0% | 13473 ng·h/mL | 3789 ng/mL | 1.40 h | –
3 | NC[C@@]1(CC(=O)O)C2CC[C@H]3C[C@@H]2[C@@H]1C3 (single isomer, unassigned) [Example 5] | 8210 ng·h/mL | 2.4 h | 87% | 14200 ng·h/mL | 4490 ng/mL | 1.6 h | – | – | – | – | – | – | –
4 | NCC1(CC(=O)O)C2CCC3CC2C1C3 (stereo not shown) [Example 6] | 8210 ng·h/mL | 2.4 h | 83.2% | 13700 ng·h/mL | 3710 ng/mL | 1.4 h | – | – | – | – | – | – | –
5 | NC[C@@]1(CC(=O)O)[C@@H]2C[C@H]3C[C@@H]2[C@@H]1C3 [Example 7, 2-(4-(aminomethyl)tricyclo[3.2.1.0^3,6]octan-4-yl)acetic acid] | 11800 ng·h/mL | 1.2 h | 97% | 23000 ng·h/mL | 9140 ng/mL | 1.1 h | – | – | – | – | – | – | –
6 | NC[C@@]1(CC(=O)O)[C@@H]2C[C@H]3C[C@@H]2[C@@H]1C3 [Example 8, 2-(4-(aminomethyl)tricyclo[3.2.1.0^3,6]octan-4-yl)acetic acid benzenesulfonic acid (1:1)] | – | – | – | – | – | – | 11788 ng·h/mL | 1.20 h | 107.9% | 25443 ng·h/mL | 8004 ng/mL | 2.10 h | –
7 | NCC1(CC(=O)O)CCCCC1 [gabapentin] | – | – | – | – | – | – | – | – | – | – | – | – | approximately 60%
